ChEMBL document CHEMBL4330185, “Computer-Assisted Discovery and Structural Optimization of a Novel Retinoid X Receptor Agonist Chemotype” (ACS Med Chem Lett, 2019)
≈ marks a conversion by molar mass, not a printed value. Calls of active or inactive are those of the source. No cut-off for these calls is given here.

Assays:
[1] = biological target: T1, Retinoic acid receptor RXR-beta (Homo sapiens, UniProt P28702); test: Agonist activity at human Gal4-DBD fused RXRbeta LBD expressed in HEK293T cells after 12 to 14 hrs by luciferase reporter gene assay; format: cell-based
T1 sequence (P28702 whole entry): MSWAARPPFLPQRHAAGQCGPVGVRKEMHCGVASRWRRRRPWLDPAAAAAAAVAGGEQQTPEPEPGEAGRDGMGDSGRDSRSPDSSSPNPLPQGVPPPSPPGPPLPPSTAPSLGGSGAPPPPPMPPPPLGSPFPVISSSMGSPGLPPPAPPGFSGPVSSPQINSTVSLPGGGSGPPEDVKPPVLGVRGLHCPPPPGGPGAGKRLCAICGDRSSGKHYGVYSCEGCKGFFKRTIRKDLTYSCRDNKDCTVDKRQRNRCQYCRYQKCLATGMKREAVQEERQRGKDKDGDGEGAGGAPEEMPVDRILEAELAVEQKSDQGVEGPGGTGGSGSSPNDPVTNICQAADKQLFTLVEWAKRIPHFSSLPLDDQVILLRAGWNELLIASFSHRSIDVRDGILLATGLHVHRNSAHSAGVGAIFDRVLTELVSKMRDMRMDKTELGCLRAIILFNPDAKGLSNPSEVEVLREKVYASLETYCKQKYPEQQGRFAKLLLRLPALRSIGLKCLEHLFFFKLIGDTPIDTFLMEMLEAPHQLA

[2] = biological target: T2, Retinoic acid receptor RXR-alpha (Homo sapiens, UniProt P19793); test: Agonist activity at human Gal4-DBD fused RXRalpha LBD expressed in HEK293T cells after 12 to 14 hrs by luciferase reporter gene assay; format: cell-based
T2 sequence (P19793 whole entry): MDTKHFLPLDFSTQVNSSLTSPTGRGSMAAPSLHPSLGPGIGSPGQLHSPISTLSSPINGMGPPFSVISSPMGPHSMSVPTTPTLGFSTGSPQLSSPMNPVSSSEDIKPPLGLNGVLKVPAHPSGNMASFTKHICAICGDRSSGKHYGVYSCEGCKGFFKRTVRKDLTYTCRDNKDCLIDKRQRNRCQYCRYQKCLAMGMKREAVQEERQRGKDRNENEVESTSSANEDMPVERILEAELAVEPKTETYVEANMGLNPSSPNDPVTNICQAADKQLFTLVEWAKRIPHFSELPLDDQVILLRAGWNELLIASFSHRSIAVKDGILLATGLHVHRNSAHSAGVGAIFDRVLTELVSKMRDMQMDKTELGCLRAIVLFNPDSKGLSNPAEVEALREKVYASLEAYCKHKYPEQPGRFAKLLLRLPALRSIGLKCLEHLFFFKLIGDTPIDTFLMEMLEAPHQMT

[3] = biological target: T3, Retinoic acid receptor RXR-gamma (Homo sapiens) (UniProt P48443); test: Agonist activity at human Gal4-DBD fused RXRgamma LBD expressed in HEK293T cells at 30 uM after 12 to 14 hrs by luciferase reporter gene assay; format: cell-based
T3 sequence (whole entry): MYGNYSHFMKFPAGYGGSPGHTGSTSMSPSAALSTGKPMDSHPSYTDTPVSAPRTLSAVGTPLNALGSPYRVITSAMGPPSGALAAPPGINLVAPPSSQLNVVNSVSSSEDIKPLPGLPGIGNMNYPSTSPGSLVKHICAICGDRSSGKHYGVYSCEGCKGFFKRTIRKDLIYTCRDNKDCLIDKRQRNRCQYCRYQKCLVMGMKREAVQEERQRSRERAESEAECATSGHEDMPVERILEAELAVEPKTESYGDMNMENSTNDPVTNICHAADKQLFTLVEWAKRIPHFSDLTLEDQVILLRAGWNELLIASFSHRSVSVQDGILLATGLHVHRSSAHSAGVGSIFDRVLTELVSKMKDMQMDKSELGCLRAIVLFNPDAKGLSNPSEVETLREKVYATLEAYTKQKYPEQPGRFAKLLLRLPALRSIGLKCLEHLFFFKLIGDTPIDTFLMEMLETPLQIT

[4] = biological target: T4, Retinoic acid receptor RXR-alpha (Homo sapiens) (UniProt P19793); test: Agonist activity at human Gal4-DBD fused RXRalpha LBD expressed in HEK293T cells after 12 to 14 hrs by luciferase reporter gene assay relative to bexarotene; format: cell-based
T4 sequence (whole entry): T2 sequence (P19793 whole entry)

[5] = biological target: T5, Retinoic acid receptor RXR-beta (Homo sapiens) (UniProt P28702); test: Agonist activity at human Gal4-DBD fused RXRbeta LBD expressed in HEK293T cells after 12 to 14 hrs by luciferase reporter gene assay relative to bexarotene; format: cell-based
T5 sequence (whole entry): T1 sequence (P28702 whole entry)

[6] = biological target: T6, Retinoic acid receptor RXR-gamma (Homo sapiens, UniProt P48443); test: Agonist activity at human Gal4-DBD fused RXRgamma LBD expressed in HEK293T cells after 12 to 14 hrs by luciferase reporter gene assay; format: cell-based
T6 sequence (P48443 whole entry): T3 sequence (whole entry)

[7] = biological target: T3, Retinoic acid receptor RXR-gamma (Homo sapiens); test: Agonist activity at human Gal4-DBD fused RXRgamma LBD expressed in HEK293T cells after 12 to 14 hrs by luciferase reporter gene assay relative to bexarotene; format: cell-based
[8] = Lipophilicity, log P of the compound by HPLC analysis; format: physicochemical
[9] = Aqueous solubility of the compound after 24 hrs by HPLC analysis; format: physicochemical; conditions: water
[10] = test system: HepG2; test: Cytotoxicity against human HepG2 cells up to 100 uM after 48 hrs by WST1 assay; format: cell-based; conditions: hepg2, 48 h
[11] = biological target: T4, Retinoic acid receptor RXR-alpha (Homo sapiens); test: Agonist activity at human Gal4-DBD fused RXRalpha LBD expressed in HEK293T cells at 10 uM after 12 to 14 hrs by luciferase reporter gene assay; format: cell-based

Row | Compound | EC50 ([1]; read-out: EC50) [µM] | EC50 ([2]; read-out: EC50) [µM] | Emax [4] [%] | Emax [5] [%] | EC50 ([6]; read-out: EC50) [µM] | Emax [7] [%] | other results
1 | CCc1ccc(OCc2ccc(C(=O)O)cc2)cc1 | 35 | 28 | 11 | 7.4 |  |  | Activity [3]: inactive
2 | C=C(c1ccc(C(=O)O)cc1)c1cc2c(cc1C)C(C)(C)CCC2(C)C [BEXAROTENE] |  |  |  |  |  |  | logP [8]: 5.2; solubility at 24 h [9]: 0.31 µg/mL (≈ 0.89 µM); Activity [10]: Non-Toxic
3 | O=C(O)c1ccc(COc2ccccc2C(F)(F)F)cc1 | 2.1 | 1.1 | 22 | 22 | 10 | 52 | 
4 | O=C(O)c1ccc(COc2ccc(Br)cc2)cc1 | 48 | 40 | 21 | 36 | > 30 |  | 
5 | CN(Cc1ccc(C(=O)O)cc1)c1ccc2c(c1)CCC2 | 9.9 | 10 | 22 | 15 | 30 | 8.5 | 
6 | O=C(O)CCCc1ccc(COc2ccc3c(c2)CCC3)cc1 |  |  |  |  |  |  | EC50 [1]: Nd(Toxic); EC50 [2]: Nd(Toxic); EC50 [6]: Nd(Toxic)
7 | O=C(O)c1ccc(COc2cccc(Cl)c2)cc1 | 20 | 17 | 54 | 26 | 44 | 9.3 | 
8 | O=C(O)c1ccc(COc2ccccc2OC(F)(F)F)cc1 | 1.9 | 1.1 | 26 | 18 | 4.2 | 25 | 
9 | O=C(O)c1ccc(COc2ccc(C(F)(F)F)cc2C(F)(F)F)cc1 | 4.3 | 6 | 118 | 66 | 11 | 49 | 
10 | O=C(O)c1ccc(COc2ccccc2F)cc1 | > 30 | > 30 |  |  | > 30 |  | 
11 | CC(C)(C)c1ccc(OCc2ccc(C(=O)O)cc2)cc1 | 8.9 | 7.8 | 16 | 15 | > 30 |  | Activity [11]: Active
12 | O=C(O)c1ccc(OCc2cccc(Cl)c2)cc1 | 28 | 27 | 27 | 24 | 29 | 29 | 
13 | Cc1ccccc1OCc1ccc(C(=O)O)cc1 | 8.6 | 5 | 24 | 27 | 19 | 19 | 
14 | O=C(O)CCc1ccc(COc2ccc3c(c2)CCC3)cc1 | 10 | 6.7 | 28 | 29 | 21 | 19 | 
15 | CC(C)(C)c1ccc(OCc2ccc(C(=O)O)cc2)c(C(C)(C)C)c1 |  |  |  |  |  |  | EC50 [1]: Nd(Toxic); EC50 [2]: Nd(Toxic); EC50 [6]: Nd(Toxic)

Second part, led by results:

Row | EC50 ([1]; read-out: EC50) [µM] | EC50 ([2]; read-out: EC50) [µM] | Emax [4] [%] | Emax [5] [%] | EC50 ([6]; read-out: EC50) [µM] | Emax [7] [%] | Compound | other results
16 | 16 | 16 | 11 | 9.5 |  |  | CC(C)c1ccc(OCc2ccc(C(=O)O)cc2)cc1 | Activity [3]: inactive
17 | 18 | 13 | 47 | 9.9 | 22 | 8.8 | O=C(O)Cc1ccc(COc2ccc3c(c2)CCC3)cc1 | 
18 | > 30 | > 30 |  |  | > 30 |  | O=C(O)c1ccc(COc2ccccc2)cc1 | 
19 | 8.3 | 9.9 | 58 | 31 | > 30 |  | O=C(O)c1ccc(COc2ccccc2Cl)cc1 | 
20 | > 30 | > 30 |  |  |  |  | O=C(O)c1ccc(OCc2ccccc2-c2ccccc2)cc1 | EC50 [6]: Nd(Toxic)
21 | > 30 | > 30 |  |  | > 30 |  | O=C(O)c1ccc(COc2ccc(Cl)cc2)cc1 | 
22 | > 30 | > 30 |  |  | > 30 |  | O=C(O)c1ccc(COc2cc3c(cc2-c2ccccc2)CCC3)cc1 | 
23 | 0.37 | 0.16 | 11 | 12 | 1.1 | 21 | CC(C)(C)c1ccccc1OCc1ccc(C(=O)O)cc1 | 
24 | > 30 | 29 | 21 |  | > 30 |  | COc1ccccc1OCc1ccc(C(=O)O)cc1 | 
25 | > 30 | > 30 |  |  | > 30 |  | O=C(O)c1ccc(CNc2ccc3c(c2)CCC3)cc1 | 
26 | 21 | > 30 |  | 25 | > 30 |  | O=C(O)c1ccc(OCc2ccc3c(c2)CCC3)cc1 | 
27 | > 30 | > 30 |  |  | > 30 |  | O=C(O)c1ccccc1COc1ccc2c(c1)CCC2 | 
28 | > 30 | > 30 |  |  |  |  | Cc1ccc(OCc2ccc(C(=O)O)cc2)c(-c2ccccc2)c1 | EC50 [6]: Nd(Toxic)
29 | 29 | 24 | 19 | 25 | > 30 |  | O=C(O)c1ccc(COc2ccc(I)cc2)cc1 | 
30 | 5.3 | 4.2 | 37 | 36 | 4 | 14 | CC(C)(C)c1ccc(OCc2ccc(C(=O)O)cc2)c(Cl)c1 | 
31 | > 30 | > 30 |  |  | > 30 |  | CC(C)(C)c1ccc(OCc2ccc(C(=O)O)cc2)c(-c2ccccc2)c1 | 
